What all share (type): binding
The target in one assay is T1, PPM1D1–420 (Homo sapiens, UniProt O15297).
T1 construct: PPM1D1–420 was PCR-amplified from the synthesized gene with BsaI sites; His(6)-SUMO (N, cleaved yes); made in house; host or cells: E. coli BL21 (DE3)
T1 sequence (O15297 1-420): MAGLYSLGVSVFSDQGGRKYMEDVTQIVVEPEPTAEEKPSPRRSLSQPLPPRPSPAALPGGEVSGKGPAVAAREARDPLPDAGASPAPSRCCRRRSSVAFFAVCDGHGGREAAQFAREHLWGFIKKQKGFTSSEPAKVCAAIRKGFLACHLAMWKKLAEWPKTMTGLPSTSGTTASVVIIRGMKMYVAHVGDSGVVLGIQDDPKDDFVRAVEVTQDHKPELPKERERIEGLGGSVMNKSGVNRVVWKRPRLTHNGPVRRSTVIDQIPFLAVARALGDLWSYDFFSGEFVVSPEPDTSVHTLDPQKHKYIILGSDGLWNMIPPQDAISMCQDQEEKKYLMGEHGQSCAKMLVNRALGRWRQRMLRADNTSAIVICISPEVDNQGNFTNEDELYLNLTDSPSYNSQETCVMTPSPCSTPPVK
Put plainly: Differential scanning calorimetry (DSC). The protocol:
(§1) DSC thermograms were recorded in MicroCal DSC from Malvern with an autosampler. For DSC experiments the purified protein constructs were extensively dialyzed against 25 mM HEPES pH 7.5, 10 mM MgCl2, 150 mM NaCl and 1 mM TCEP. The experiments were performed using 0.4 mg/mL concentration of wild-type or mutant protein (8.5–8.9 µM), with and without GSK2830371 compound at 40 µM and 2% DMSO (v/v). The respective reference scans were run under identical DSC set up conditions and subtracted from each sample scan. The program was run in a continuous acquisition mode from 25 °C to 90 °C at a rate of 120 °C/h The heat capacity curves and midpoint temperature (Tm) were analyzed using Origin 7.0 software.
For orientation: DSC measures the heat that a sample takes up or gives off during a temperature scan.

In assay [1] the target is T2, PPM1DΔflap (Homo sapiens, UniProt O15297, DEL219-231/DEL235-284/E287S/S285N).
T2 construct: PPM1D1–218-GGSNGS-288–420 (PPM1D∆flap); His(6)-SUMO (N, cleaved yes); made in house; host or cells: E. coli BL21 (DE3)
T2 sequence (O15297 with tags, fused parts or gaps DEL219-231/DEL235-284/S285N/E287S): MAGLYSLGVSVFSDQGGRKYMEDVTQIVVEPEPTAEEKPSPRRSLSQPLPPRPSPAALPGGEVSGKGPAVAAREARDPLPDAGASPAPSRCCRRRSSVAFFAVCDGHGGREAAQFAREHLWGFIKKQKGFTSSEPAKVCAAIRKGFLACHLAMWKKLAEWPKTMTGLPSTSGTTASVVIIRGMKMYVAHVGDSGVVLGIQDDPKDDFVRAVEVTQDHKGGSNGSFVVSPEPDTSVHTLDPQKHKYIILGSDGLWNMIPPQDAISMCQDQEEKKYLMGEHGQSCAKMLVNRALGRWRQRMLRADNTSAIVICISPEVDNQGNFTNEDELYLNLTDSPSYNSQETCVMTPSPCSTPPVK
Briefly: Differential scanning calorimetry (DSC). The settings on record: Supplementary Fig. 5B. The protocol: as §1

Assay [2] concerns the target T2, PPM1DΔflap. Put plainly: Isothermal titration calorimetry (ITC). The settings on record: Sup Fig 5A. The protocol:
(§2) Assessments of the analog of GSK2830371 (analog 1d) binding to wild-type and mutant proteins were conducted using an Auto-iTC200 microcalorimeter (Malvern) (see section on synthesis of analog 1d below). The protein was dialyzed extensively into 25 mM HEPES (pH 7.4), 150 mM NaCl, 10 mM MgCl2 and 1 mM TCEP. The dialyzed protein was used to prepare fresh working solutions of protein (20 µM) and analog 1d (200 µM) in 2% DMSO (v/v) in the same buffer. Titrations were performed at 25 °C and consisted of a single initial injection of 0.4 µL, followed by 19 injections of 2 µL of compound into a sample cell containing wild-type or mutant PPM1D, with an interval of 150 s between successive injections. The reference power and stirring speed were set at […] and 1000 RPM, respectively. Heat of dilution and mixing were obtained from injections of analog 1d into ITC buffer lacking protein and subtracted from the integrated data before curve fitting. Thermodynamic data were analyzed using Origin 7.0 software and fitted by non-linear regression to the model for a single binding site.

The target of a further assay is T3, PPM1DΔhinge (Homo sapiens, UniProt O15297, DEL155-163/G166S/M164G/T165G).
T3 construct: PPM1D1–154-GGS-167–420 (PPM1D∆hinge); His(6)-SUMO (N, cleaved yes); made in house; host or cells: E. coli BL21 (DE3)
T3 sequence (O15297 with tags, fused parts or gaps DEL155-163/M164G/T165G/G166S): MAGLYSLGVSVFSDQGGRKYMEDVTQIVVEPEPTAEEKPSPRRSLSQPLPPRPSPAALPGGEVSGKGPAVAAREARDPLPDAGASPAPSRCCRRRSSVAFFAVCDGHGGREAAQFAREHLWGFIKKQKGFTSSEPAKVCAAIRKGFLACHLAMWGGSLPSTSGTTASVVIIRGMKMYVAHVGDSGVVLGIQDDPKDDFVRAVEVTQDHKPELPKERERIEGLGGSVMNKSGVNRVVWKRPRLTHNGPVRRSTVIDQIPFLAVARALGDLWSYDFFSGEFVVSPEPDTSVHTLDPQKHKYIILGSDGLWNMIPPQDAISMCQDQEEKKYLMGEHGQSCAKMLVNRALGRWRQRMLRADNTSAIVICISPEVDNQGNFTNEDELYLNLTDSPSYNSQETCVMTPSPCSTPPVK
Put plainly: Isothermal titration calorimetry (ITC). Particulars: Sup Fig 5C. The protocol:
as §2
Background: Isothermal titration calorimetry measures the heat released or taken up as one component is titrated into another.

Where [3] appears, read: source data Fig 3C, with GSK, in °C (unit assumed).
[4] abbreviates: ITC stoichiometry, average of 2 trials.

Several values for one entry are separate records, joined by “and”; a condition that tells them apart may be missing. Equal values may be shown once. Read-outs that look alike come from different tables or passages of the source.

Regarding `Cc1ncc(Cl)cc1NCc1ccc(C(=O)N[C@@H](CC2CCCC2)C(=O)NC2CC2)s1` [GSK2830371], the ΔTm at 40 µM at PPM1D1–420 (PPM1D1–420, 40 µM compound, read-out: thermal shift by DSC) was determined as 8 °C. Moreover, the “DSC Trial 1 (melting temperature)” value on PPM1D1–420 (Sup Fig 2D, protein with GSK vs WT alone, trial 1) was 62.26 ˚C. Moreover, the “DSC Trial 2 (melting temperature)” value at PPM1D1–420 (Sup Fig 2D, protein with GSK vs WT alone, trial 2) is 62.33 ˚C. Moreover, on PPM1D1–420 (Sup Fig 2D, protein with GSK vs WT alone, trial 3), the “DSC Trial 3 (melting temperature)” value is recorded as 62.14 ˚C. The “DSC Average (melting temperature)” value at PPM1D1–420 (Sup Fig 2D, protein with GSK, average of trials) is 62.2433 ˚C. Also, at PPM1D1–420 (setting [3]), the “DSC Average (Tm)” value worked out at 62.2433, the “DSC Trial 1 (Tm)” value turned out to be 62.26, the “DSC Trial 2 (Tm)” value was determined as 62.33 and the “DSC Trial 3 (Tm)” value is given as 62.14. On PPM1DΔflap [1], the “thermal shift by DSC” value was “+8.5 °C”. Further, the “N Average” value on PPM1DΔflap [2] (setting [4]) is 1.11. Also, at PPM1DΔflap [2] (ITC, average of 2 trials), the “DH Average” value is -14.43 kcal/mol and the “DS Average” value is reported as -12.15 cal/mol/deg. The dissociation constant (Kd) (commonly a measure of binding affinity in units of concentration) on PPM1DΔflap [2] (ITC, average of 2 trials, read-out: Kd Average) was 11.9 nM. Besides, on PPM1DΔflap [2] (ITC, individual trials), the DH is -14.15 kcal/mol and -14.71 kcal/mol; the DS was -11.3 cal/mol/deg and -13 cal/mol/deg. Also, on PPM1DΔflap [2] (ITC, individual trials, read-out: Kd), the dissociation constant (Kd) is 12.2 nM and 11.5 nM. Besides, the “N Average” value on PPM1DΔhinge (setting [4]) turned out to be 0.8785. Moreover, at PPM1DΔhinge (ITC, average of 2 trials), the “DH Average” value was -3.817 kcal/mol and the “DS Average” value was 13.65 cal/mol/deg. Also, on PPM1DΔhinge (ITC, individual trials), the DH was -3.047 kcal/mol and -4.587 kcal/mol; the DS was 16.6 cal/mol/deg and 10.7 cal/mol/deg.

Source of the values: PMC9246869, “Allosteric inhibition of PPM1D serine/threonine phosphatase via an altered conformational state” (Nature Communications, 2022).
